{"source": "patent US20240350655A1", "about": "“THIOL-CONJUGATION WITH UNSATURATED PHOSPHORUS(V) COMPOUNDS” (FORSCHUNGSVERBUND BERLIN E.V., priority 2021, published 2024)", "key": {"[1]": {"experiment": "Second-order rate constant of the reaction with glutathione, fluorescent HPLC", "details": "1 eq. glutathione (0.5 mM), 50 mM ABC buffer, 1 mM EDTA, pH 8.5", "experimental": "The second-order rate constant of the reaction between glutathione and EDANS-phosphinates CS265 and CS266 was determined according to the following procedure: The EDANS-phosphinate was reacted with 1 eq. of glutathione (0.5 mM) in the presence of 50 mM ABC buffer (ammonium bicarbonate buffer) and 1 mM EDTA at pH 8.5. The reactions were performed in a volume of 0.1 ml. The first sample (t=0) was drawn before the addition of glutathione. Samples were taken after 1, 2, 5, 12, 22 and 35 min (CS266) or after 30, 60, 120, 240 and 1440 min (CS265). Samples were drawn in a volume of 10 μl and immediately diluted into 200 μl of 50 mM NaOAc buffer at pH 3.5, to stop the reaction. Those samples were subjected to fluorescent HPLC analyses, injecting 50 μl each."}, "[2]": {"target": "T1, eGFP C70M S147C (Aequorea victoria, UniProt P42212, C70M/F64L/H231L/S147C/S65T)", "T1 construct": "protease cleavage site highlighted with subscripts; His-tag (N); protease cleavage site (N); made in house", "T1 sequence (P42212 with tags, fused parts or gaps F64L/S65T/C70M/S147C/H231L)": "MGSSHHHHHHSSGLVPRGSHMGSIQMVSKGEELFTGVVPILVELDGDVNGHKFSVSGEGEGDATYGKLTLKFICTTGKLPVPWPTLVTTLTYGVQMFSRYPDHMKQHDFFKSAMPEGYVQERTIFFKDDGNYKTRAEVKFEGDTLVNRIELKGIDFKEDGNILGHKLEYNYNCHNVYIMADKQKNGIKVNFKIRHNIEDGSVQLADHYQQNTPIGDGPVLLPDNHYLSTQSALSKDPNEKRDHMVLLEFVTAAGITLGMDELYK", "experiment": "Tandem-mass spectrometry of tryptically digested labelled eGFP", "details": "10 eq. phosphinate, PBS pH 7.4, 10% DMSO", "experimental": "At first phosphinate-1 was reacted with an eGFP mutant containing a single addressable Cys (eGFP C70M S147C). Using 10 eq. phosphinate in PBS pH 7.4 containing 10% DMSO as a co-solvent, the reaction reached completion after 30 minutes (FIG. 5d).\n1 in PBS (30 min, r.t.) followed by purification via 0.5 mL Zeba™ Spin Desalting Columns with 7K MWCO (Thermo Fisher Scientific, USA) into phosphate-buffer (20 mM, pH 7.5). Complete labeling was verified via intact-protein MS."}, "[3]": {"target": "T1, eGFP C70M S147C", "experiment": "Second-order rate constant of the reaction with eGFP, intact protein-MS", "details": "one equivalent GFP, Tris-buffer (pH 8.3), 90 μM, room-temperature", "experimental": "Subsequently, this new compound-class was compared with other Cys-reactive electrophiles in terms of reaction kinetics. The estimation of reaction-kinetics is particularly challenging for bis-reactive reagents because the second thiol addition interferes with the analysis. […] Consequently, 2 was reacted with one equivalent GFP in Tris-buffer (pH 8.3) at a concentration of 90 μM at room-temperature.\nDetermination of the second-order rate constant of the reaction between eGFP (C70M S147C) and phosphinate 2. […] Reactions were carried out in triplicate. 90 μl eGFP (0.1 mM) were mixed with 10 μl of a 0.9 mM solution of phosphinate 2 in DMSO. Samples were drawn after 60, 90, 150, 210 and 300 minutes and analyzed via intact protein-MS. […] Calculated by the intensity of the deconvoluted mass in relation to the internal standard eGFP (C70M). […] The slope corresponds to the second order rate constant. Shown are mean and error of three independent measurements."}}}
{"smiles": "C#CP(=O)(OCC)c1cn(CCC(=O)NCCNc2cccc3c(S(=O)(=O)O)cccc23)nn1", "note": "(stereo not drawn) [CS266, EDANS-1,2,3-triazol-ethyl-ethynylphosphinate]", "values": [{"measurement": "reaction kinetics relative to CS265", "setting": "[1]", "value": "roughly ten times faster than with CS265"}]}
{"smiles": "C#CP(=O)(C#C)OCC", "note": "[compound 1, ethyl diethynyl phosphinate]", "values": [{"measurement": "amino acids modified (MS/MS)", "setting": "[2]", "value": "no amino acid other than Cys was modified"}]}
{"smiles": "C#CCCOP(=O)(C#C)C#C", "note": "[compound 2, but-3-yn-1-yl-diethynylphosphinate]", "values": [{"measurement": "second-order rate constant", "setting": "[3]", "value": "~0.47", "unit": "M⁻¹ s⁻¹"}]}
